The target in assay [1] is T1, IRAK4 (Homo sapiens (Human), UniProt Q9NWZ3). Description: IRAK4 Degradation HiBiT Assay. Particulars: multiple runs, HiBiT-tagged Jurkat cells, 4 hrs; for Dmax: Jurkat, read-out: Cellular IRAK4 HiBiT: Dmax, Table 5; for DC50: read-out: Cellular IRAK4 HiBiT: DC50.
Target sequence in this assay (Q9NWZ3 whole entry): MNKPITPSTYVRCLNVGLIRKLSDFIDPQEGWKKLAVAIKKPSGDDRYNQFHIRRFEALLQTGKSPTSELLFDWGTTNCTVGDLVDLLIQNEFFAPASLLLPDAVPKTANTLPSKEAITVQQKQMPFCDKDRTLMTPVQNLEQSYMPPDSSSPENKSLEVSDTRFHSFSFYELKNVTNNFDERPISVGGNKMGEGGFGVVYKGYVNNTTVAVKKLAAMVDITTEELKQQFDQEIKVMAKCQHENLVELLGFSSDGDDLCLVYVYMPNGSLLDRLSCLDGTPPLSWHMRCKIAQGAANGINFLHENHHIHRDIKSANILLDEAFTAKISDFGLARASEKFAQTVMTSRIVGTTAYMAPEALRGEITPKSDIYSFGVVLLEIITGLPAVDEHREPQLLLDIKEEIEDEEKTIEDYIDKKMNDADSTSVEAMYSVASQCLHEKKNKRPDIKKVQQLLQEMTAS
Assay [2] concerns the target T1, IRAK4. Description: IRAK4 Biochemical HTRF Kinase Assay. The conditions noted are these: Table 5; multiple runs; read-out: IRAK4 HTRF biochemical: IC50. The gist of the method: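 HTRF KinEASE STK S1 format measuring IRAK4 phosphorylation of biotinylated peptide; reaction solution of 5 μM STK-S1, 10 mM ATP, 10 mM MgCl2 added (stock, to 10 μl final), 90 min at ambient temperature, detection 60 min. IC50 from sixteen-point duplicate curves by non-linear regression.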
Target sequence in this assay (Q9NWZ3 whole entry, species assumed): as the sequence (Q9NWZ3 whole entry) above

With `CNc1cc(-c2ccc3cc(C#N)cnn23)ncc1-c1nnc([C@H]2CC[C@@H](NC(=O)CCOCCNc3ccc4c(c3)C(=O)N(C3CCC(=O)NC3=O)C4=O)CC2)s1` (stereo partly drawn) [Example 115, N-((1s,4s)-4-(5-(6-(3-cyanopyrrolo[1,2-b]pyridazin-7-yl)-4-(methylamino)pyridin-3-yl)-1,3,4-thiadiazol-2-yl)cyclohexyl)-3-(2-((2-(2,6-dioxopiperidin-3-yl)-1,3-dioxoisoindolin-5-yl)amino)ethoxy)propanamide], on IRAK4 [1], the Dmax worked out at 78%. The half-maximal degradation concentration (DC50) at IRAK4 [1] (Table 5) is 44.7 nM. For the same compound, the IC50 on IRAK4 [2] stood at 2.2 nM.

On to `CNc1cc(-c2ccc3cc(C#N)cnn23)ncc1-c1nnc([C@H]2CC[C@@H](NC(=O)CCOCCNc3cccc4c3C(=O)N(C3CCC(=O)NC3=O)C4=O)CC2)s1` (stereo partly drawn) [Example 116, N-((1s,4s)-4-(5-(6-(3-cyanopyrrolo[1,2-b]pyridazin-7-yl)-4-(methylamino)pyridin-3-yl)-1,3,4-thiadiazol-2-yl)cyclohexyl)-3-(2-((2-(2,6-dioxopiperidin-3-yl)-1,3-dioxoisoindolin-4-yl)amino)ethoxy)propanamide], for which the Dmax on IRAK4 [1] came to 60%. Besides, at IRAK4 [1] (Table 5), the 50% degradation concentration (DC50) turned out to be 46.3 nM. On IRAK4 [2], the IC50 is 2.2 nM.

In the case of `CNc1cc(-c2ccc3cc(C#N)cnn23)ncc1-c1nnc([C@H]2CC[C@@H](NC(=O)CCOCCOCCOCCNc3cccc4c3C(=O)N(C3CCC(=O)NC3=O)C4=O)CC2)s1` (stereo partly drawn) [Example 117, N-((1s,4s)-4-(5-(6-(3-cyanopyrrolo[1,2-b]pyridazin-7-yl)-4-(methylamino)pyridin-3-yl)-1,3,4-thiadiazol-2-yl)cyclohexyl)-3-(2-(2-(2-((2-(2,6-dioxopiperidin-3-yl)-1,3-dioxoisoindolin-4-yl)amino)ethoxy)ethoxy)ethoxy)propanamide], the Dmax at IRAK4 [1] turned out to be 20%. Further, the 50% degradation concentration (DC50) at IRAK4 [1] (Table 5) worked out at 27.1 nM. Moreover, the concentration for half-maximal inhibition (IC50) at IRAK4 [2] was 1.2 nM.

For `CNc1cc(-c2ccc3cc(C#N)cnn23)ncc1-c1nnc([C@H]2CC[C@H](NC(=O)C[C@H](NC(=O)[C@@H]3C[C@@H](O)CN3C(=O)[C@@H](NC(=O)C3(F)CC3)C(C)(C)C)c3ccc(-c4scnc4C)cc3)CC2)s1` [Example 118, (2S,4R)—N—((S)-3-(((1r,4S)-4-(5-(6-(3-cyanopyrrolo[1,2-b]pyridazin-7-yl)-4-(methylamino)pyridin-3-yl)-1,3,4-thiadiazol-2-yl)cyclohexyl)amino)-1-(4-(4-methylthiazol-5-yl)phenyl)-3-oxopropyl)-1-((S)-2-(1-fluorocyclopropane-1-carboxamido)-3,3-dimethylbutanoyl)-4-hydroxypyrrolidine-2-carboxamide], at IRAK4 [1], the Dmax came to 118%. Besides, the DC50 on IRAK4 [1] (Table 5) is 35.2 nM. The IC50 at IRAK4 [2] amounted to 1.4 nM.

With `CNc1cc(-c2ccc3cc(C#N)cnn23)ncc1-c1nnc([C@H]2CC[C@H](NC(=O)CCCOc3cc(-c4scnc4C)ccc3CNC(=O)[C@@H]3C[C@@H](O)CN3C(=O)[C@@H](NC(=O)C3(F)CC3)C(C)(C)C)CC2)s1` [Example 119, (2S,4R)—N-(2-(4-(((1r,4S)-4-(5-(6-(3-cyanopyrrolo[1,2-b]pyridazin-7-yl)-4-(methylamino)pyridin-3-yl)-1,3,4-thiadiazol-2-yl)cyclohexyl)amino)-4-oxobutoxy)-4-(4-methylthiazol-5-yl)benzyl)-1-((S)-2-(1-fluorocyclopropane-1-carboxamido)-3,3-dimethylbutanoyl)-4-hydroxypyrrolidine-2-carboxamide], the Dmax on IRAK4 [1] was 117%. For the same compound, at IRAK4 [1] (Table 5), the 50% degradation concentration (DC50) came to 116 nM. Also, the concentration for half-maximal inhibition (IC50) at IRAK4 [2] is 2.2 nM.

As for `CNc1cc(-c2ccc3cc(C#N)cnn23)ncc1-c1nnc([C@H]2CC[C@@H](NC(=O)CCCCCNc3cccc4c3C(=O)N(C3CCC(=O)NC3=O)C4=O)CC2)s1` (stereo partly drawn) [Example 120, N-((1s,4s)-4-(5-(6-(3-cyanopyrrolo[1,2-b]pyridazin-7-yl)-4-(methylamino)pyridin-3-yl)-1,3,4-thiadiazol-2-yl)cyclohexyl)-6-((2-(2,6-dioxopiperidin-3-yl)-1,3-dioxoisoindolin-4-yl)amino)hexanamide], at IRAK4 [1] (Table 5), the “Cellular IRAK4 HiBiT: Dmax” value is given as 32% and the half-maximal degradation concentration (DC50) is 33.4 nM. The IC50 at IRAK4 [2] was found to be 1.1 nM.

In the case of `CNc1cc(-c2ccc3cc(C#N)cnn23)ncc1-c1nnc([C@H]2CC[C@@H](NC(=O)CCC(=O)N[C@H](C(=O)N3C[C@H](O)C[C@H]3C(=O)N[C@@H](C)c3ccc(-c4scnc4C)cc3)C(C)(C)C)CC2)s1` [Example 121, N1-((1s,4R)-4-(5-(6-(3-cyanopyrrolo[1,2-b]pyridazin-7-yl)-4-(methylamino)pyridin-3-yl)-1,3,4-thiadiazol-2-yl)cyclohexyl)-N4—((S)-1-((2S,4R)-4-hydroxy-2-(((S)-1-(4-(4-methylthiazol-5-yl)phenyl)ethyl)carbamoyl)pyrrolidin-1-yl)-3,3-dimethyl-1-oxobutan-2-yl)succinamide], the Dmax at IRAK4 [1] amounted to 95%. Also, the DC50 at IRAK4 [1] (Table 5) worked out at 1080 nM. The concentration for half-maximal inhibition (IC50) at IRAK4 [2] was 1.2 nM.

Regarding `CNc1cc(-c2ccc3cc(C#N)cnn23)ncc1-c1nnc(N2CCCC3(CN(Cc4ccc5c(c4)C(=O)N(C4CCC(=O)NC4=O)C5=O)C3)C2)s1` (stereo not drawn) [Example 122, 7-(5-(5-(2-((2-(2,6-dioxopiperidin-3-yl)-1,3-dioxoisoindolin-5-yl)methyl)-2,6-diazaspiro[3.5]nonan-6-yl)-1,3,4-thiadiazol-2-yl)-4-(methylamino)pyridin-2-yl)pyrrolo[1,2-b]pyridazine-3-carbonitrile], the DC50 at IRAK4 [1] (Table 5) was > 9980 nM. For the same compound, on IRAK4 [2], the 50% inhibitory concentration (IC50) came to 1.1 nM.

As to `CNc1cc(-c2ccc3cc(C#N)cnn23)ncc1-c1nnc(N2CCCC3(CN(Cc4ccc5c(c4)CN(C4CCC(=O)NC4=O)C5=O)C3)C2)s1` (stereo not drawn) [Example 123, 7-(5-(5-(2-((2-(2,6-dioxopiperidin-3-yl)-1-oxoisoindolin-5-yl)methyl)-2,6-diazaspiro[3.5]nonan-6-yl)-1,3,4-thiadiazol-2-yl)-4-(methylamino)pyridin-2-yl)pyrrolo[1,2-b]pyridazine-3-carbonitrile], the half-maximal degradation concentration (DC50) at IRAK4 [1] (Table 5) was > 9980 nM. In addition, at IRAK4 [2], the IC50 was determined as 2.1 nM.

As to `CNc1cc(-c2ccc3cc(C#N)cnn23)ncc1-c1nnc(N2CCCC3(CN(C(=O)c4ccc5c(c4)C(=O)N(C4CCC(=O)NC4=O)C5=O)C3)C2)s1` (stereo not drawn) [Example 124, 7-(5-(5-(2-(2-(2,6-dioxopiperidin-3-yl)-1,3-dioxoisoindoline-5-carbonyl)-2,6-diazaspiro[3.5]nonan-6-yl)-1,3,4-thiadiazol-2-yl)-4-(methylamino)pyridin-2-yl)pyrrolo[1,2-b]pyridazine-3-carbonitrile], the 50% degradation concentration (DC50) on IRAK4 [1] (Table 5) was > 9980 nM. For the same compound, on IRAK4 [2], the IC50 was 1.9 nM.

For the compound `CNc1cc(-c2ccc3cc(C#N)cnn23)ncc1-c1nnc(C2CCC(NC(=O)Cn3ccc(C(=O)N[C@H](C(=O)N4C[C@H](O)C[C@H]4C(=O)N[C@@H](C)c4ccc(-c5scnc5C)cc4)C(C)(C)C)n3)CC2)s1` (stereo partly drawn) [Example 125, 1-(2-(((1r,4S)-4-(5-(6-(3-cyanopyrrolo[1,2-b]pyridazin-7-yl)-4-(methylamino)pyridin-3-yl)-1,3,4-thiadiazol-2-yl)cyclohexyl)amino)-2-oxoethyl)-N—((S)-1-((2S,4R)-4-hydroxy-2-(((S)-1-(4-(4-methylthiazol-5-yl)phenyl)ethyl)carbamoyl)pyrrolidin-1-yl)-3,3-dimethyl-1-oxobutan-2-yl)-1H-pyrazole-3-carboxamide], the Dmax on IRAK4 [1] stood at 116%. Further, the half-maximal degradation concentration (DC50) at IRAK4 [1] (Table 5) was found to be 166 nM. For the same compound, the 50% inhibitory concentration (IC50) at IRAK4 [2] is 1.7 nM.

Turning to `CNc1cc(-c2ccc3cc(C#N)cnn23)ncc1-c1nnc([C@H]2CC[C@@H](NC(=O)CN3CCN(c4ccc5c(c4)C(=O)N(C4CCC(=O)NC4=O)C5=O)CC3)CC2)s1` (stereo partly drawn) [Example 126, N-((1s,4s)-4-(5-(6-(3-cyanopyrrolo[1,2-b]pyridazin-7-yl)-4-(methylamino)pyridin-3-yl)-1,3,4-thiadiazol-2-yl)cyclohexyl)-2-(4-(2-(2,6-dioxopiperidin-3-yl)-1,3-dioxoisoindolin-5-yl)piperazin-1-yl)acetamide], the Dmax at IRAK4 [1] worked out at 111%. Moreover, the 50% degradation concentration (DC50) at IRAK4 [1] (Table 5) was 63.1 nM. In addition, the 50% inhibitory concentration (IC50) on IRAK4 [2] was 0.9 nM.

For `CNc1cc(-c2ccc3cc(C#N)cnn23)ncc1-c1nnc([C@H]2CC[C@@H](NC(=O)CN3CCC4(CC3)CN(c3ccc5c(c3)C(=O)N(C3CCC(=O)NC3=O)C5=O)C4)CC2)s1` (stereo partly drawn) [Example 127, N-((1s,4s)-4-(5-(6-(3-cyanopyrrolo[1,2-b]pyridazin-7-yl)-4-(methylamino)pyridin-3-yl)-1,3,4-thiadiazol-2-yl)cyclohexyl)-2-(2-(2-(2,6-dioxopiperidin-3-yl)-1,3-dioxoisoindolin-5-yl)-2,7-diazaspiro[3.5]nonan-7-yl)acetamide], the Dmax on IRAK4 [1] turned out to be 58%. For the same compound, the DC50 at IRAK4 [1] (Table 5) was found to be 187 nM. The IC50 at IRAK4 [2] is 0.8 nM.

For the compound `CNc1cc(-c2ccc3cc(C#N)cnn23)ncc1-c1nnc(C23CCC(NC(=O)CCC(=O)N[C@H](C(=O)N4C[C@H](O)C[C@H]4C(=O)N[C@@H](C)c4ccc(-c5scnc5C)cc4)C(C)(C)C)(CC2)CC3)s1` [Example 128, N1-(4-(5-(6-(3-cyanopyrrolo[1,2-b]pyridazin-7-yl)-4-(methylamino)pyridin-3-yl)-1,3,4-thiadiazol-2-yl)bicyclo[2.2.2]octan-1-yl)-N4—((S)-1-((2S,4R)-4-hydroxy-2-(((S)-1-(4-(4-methylthiazol-5-yl)phenyl)ethyl)carbamoyl)pyrrolidin-1-yl)-3,3-dimethyl-1-oxobutan-2-yl)succinamide], the Dmax on IRAK4 [1] was 139%. For the same compound, on IRAK4 [1] (Table 5), the DC50 was determined as 432 nM. The IC50 on IRAK4 [2] was 1.7 nM.

For `CNc1cc(-c2ccc3cc(C#N)cnn23)ncc1-c1nnc(C23CCC(NC(=O)CCOCCC(=O)N[C@H](C(=O)N4C[C@H](O)C[C@H]4C(=O)NCc4ccc(-c5scnc5C)cc4)C(C)(C)C)(CC2)CC3)s1` [Example 129], the Dmax on IRAK4 [1] was 115%. Moreover, at IRAK4 [1] (Table 5), the half-maximal degradation concentration (DC50) is 356 nM. The IC50 at IRAK4 [2] was determined as 1.2 nM.

Source of the values: patent publication US12528814B2, “Bifunctional degraders of interleukin-1 receptor-associated kinases and therapeutic use thereof” (NURIX THERAPEUTICS, INC., priority 2020, dated 2026).
